{"source": "paper PMC9138545", "about": "“Incorporation of Oxidized Phenylalanine Derivatives into Insulin Signaling Relevant Proteins May Link Oxidative Stress to Signaling Conditions Underlying Chronic Insulin Resistance” (Biomedicines, 2022)", "key": {"[1]": {"test_system": "patients (chronic insulin resistance)", "details": "chronic antioxidant therapy, e.g., in diabetic neuropathy; ref [7]; cited from earlier work", "description": "Moreover, using the so-called “breakthrough” therapy, a 2–4 week decrease in glucotoxicity is able to normalize glycemia by decreasing insulin resistance for months or years. Because clinical insulin resistance can be reverted, it is not an alteration of the DNA, but rather some type of protein abnormality; this can be hypothesized given the background of this oxidative stress-induced clinical condition."}, "[2]": {"test_system": "human PTP1B catalytic domain (1–299 aa)", "assay": "PTP1B dephosphorylation assay, capillary electrophoresis", "format": "biochemical", "details": "80 μM phosphopeptide, 25 nM PTP1B, 50 mM TRIS, 150 mM NaCl, 1 mM EDTA, 2 mM DTT, pH 7.4", "protocol": "The cDNA segment encoding the human PTP1B catalytic domain (1–299 aa) was PCR amplified from a HEK293T cDNA pool and inserted into the pBH4 vector with BamHI and NotI restriction sites. This construct is only missing the C-terminal flexible region and the membrane binding segment of PTP1B. The protein was expressed with an N-terminal hexa-histidine tag. Recombinant active PTP1B was expressed in the Escherichia coli BL21 (DE3) bacterial strain. Briefly, cells were grown in an ampicillin-containing LB medium at 37 °C to OD = 0.6 and then cooled down to 18 °C and induced by the addition of 0.05 mM isopropyl-beta-D-thiogalactoside (IPTG). After an overnight expression at 18 °C, the pellet was harvested and washed with phosphate buffered saline (PBS). Following freezing at −80 °C, cells were lysed in an appropriate buffer (300 mM NaCl, 50 mM phosphate, 10 mM imidazole, 2 mM beta-mercapto-ethanol, 0.1% IGEPAL with pH = 8.0, and 0.5 mM benzamidine with 0.5 mM PMSF protease inhibitors added) with the help of sonification. The lysate was centrifuged at 20,000 rpm for 30 min and the supernatant (~30 mL) was mixed with 1 mL Ni-NTA resin slurry (50%). After 45 min incubation at 4 °C, the mixture was transferred to gravity columns and washed with 10-10 mL of imidazole (40 mM imidazole, 300 mM NaCl, 50 mM phosphate, pH = 8.0 with 2 mM beta-mercapto-ethanol) and high salt (1000 mM NaCl, 20 mM imidazole, 20 mM TRIS, pH = 8.0 with 2 mM beta-mercapto-ethanol) containing wash buffers, each. PTP1B was eluted by applying 5 mL elution buffer (400 mM imidazole, 200 mM NaCl, 10% glycerol, 20 mM TRIS, pH = 8.0, with 0.1% IGEPAL). The eluted protein was supplemented with tricarboxy-ethyl-phosphine (TCEP) reducing agent at 2 mM concentration.\nThe Ni-NTA purified PTP1B protein was further purified by anion exchange chromatography. […]\nBackground electrolyte (BGE) components phosphoric acid and triethylamine were purchased from Sigma (St. Louis, MO, USA) and from Merck GmbH (Darmstadt, Germany), respectively. […] On-line absorption at 200 nm was monitored by DAD UV-Vis detector. […]"}, "[3]": {"biological_target": "T1, C-terminal SH2 domain of PI3K regulatory subunit 1 (Homo sapiens, UniProt P27986)", "T1 construct": "The N- and C-terminal SH2 domains (regions 321–433 and 614–724, respectively) of the PI3K regulatory subunit; hexa-histidine (inferred: expressed and purified like His-tagged PTP1B); made in house; host or cells: Escherichia coli (bacterial expression vector; strain BL21 (DE3) is stated only for PTP1B)", "T1 sequence (P27986 614-724)": "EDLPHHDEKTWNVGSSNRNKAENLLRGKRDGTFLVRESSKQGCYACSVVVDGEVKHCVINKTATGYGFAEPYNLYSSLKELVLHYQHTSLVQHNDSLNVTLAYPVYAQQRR", "assay": "Fluorescence polarization binding, PI3K-SH2(C)", "details": "competitive FP; statement for the SH2 domains", "description": "The N- and C-terminal SH2 domains (regions 321–433 and 614–724, respectively) of the PI3K regulatory subunit were subcloned into a bacterial expression vector by PCR and then similarly expressed and purified as described above.\nFor in vitro fluorescence polarization (FP)-based affinity measurements, a peptide containing the phosphorylated tyrosine residue 632 of human IRS1 was labelled by lys-carboxyfluorescenine at its C-terminal end (GRKGSGD(pY)MPMSPKS(K-FITC). Synthesis of the labelled peptide was done by GenScript Inc. For competitive FP measurements, unlabeled peptides with either natural (para-phospho-Tyr) or unnatural (ortho-phospho-Tyr and meta-phospho-Tyr) phosphorylated amino acids (core sequence GRKGSGD(pY)MPMSPKV in all three cases) were used. Direct titration with the labelled peptide was done by generating a dilution series of the protein (N-terminal and C-terminal SH2 domains of PI3K regulatory subunit 1), with a constant (100 nM) peptide concentration in a standard buffer (100 mM NaCl, 20 mM TRIS pH = 8.0, 0.05% Brij-35 detergent). Competitive titrations were done by keeping the concentration of the protein-labelled peptide mixture constant (150 nM and 1500 nM C-terminal and N-terminal domain, respectively, with 100 nM labelled peptide) and varying the concentration of the unlabeled competitor peptide instead. […]"}, "[4]": {"test_system": "acute insulin resistance", "details": "ref [6]; cited from earlier work", "description": "Acute insulin resistance induced by tumor necrosis factor alpha (TNFα) or dexamethasone could be ameliorated by the antioxidants N-acetylcysteine, manganese (III) tetrakis (4-benzoicacid) porphyrin (MnTBAP), or by induction of antioxidant enzymes such as superoxide dismutase or catalase."}, "[5]": {"test_system": "type 2 diabetic patients", "details": "ref [40]; cited from earlier work", "description": "Elevated levels of m- and/or o-Tyr have been described in the vascular wall of cynomolgus monkeys as well as in cataract lenses."}}}
{"compound": "O=C(O)CCCCC1CCSS1", "note": "(stereo not drawn) [alpha-lipoic acid]", "values": [{"measurement": "chronic insulin resistance", "setting": "[1]", "result": "able to improve chronic insulin resistance"}]}
{"compound": "GRKGSGDF(4-PO4H2)MPMSPKV [GRKV2, phospho-para-Tyr containing IRS-1 YXXM motif peptide]", "values": [{"measurement": "dephosphorylation by PTP1B", "setting": "[2]", "result": "apart from the p-Tyr peptide, none of the modified Tyr containing peptides could be dephosphorylated by PTP1B"}]}
{"compound": "GRKGSGDF(3-PO4H2)MPMSPKV [GRKV4, phospho-meta-Tyr containing IRS-1 YXXM motif peptide]", "values": [{"measurement": "dephosphorylation by PTP1B", "setting": "[2]", "result": "incapable of dephosphorylating"}, {"measurement": "binding affinity compared to phospho-para-Tyr peptide (GRKV2), PI3K-SH2(C)", "setting": "[3]", "result": "greatly reduced binding affinity"}]}
{"compound": "O=C(O)c1ccc(-c2c3nc(c(-c4ccc(C(=O)O)cc4)c4ccc([n-]4)c(-c4ccc(C(=O)O)cc4)c4nc(c(-c5ccc(C(=O)O)cc5)c5ccc2[n-]5)C=C4)C=C3)cc1.[Mn+3]", "note": "[MnTBAP, manganese (III) tetrakis (4-benzoicacid) porphyrin]", "values": [{"measurement": "acute insulin resistance induced by TNFα or dexamethasone", "setting": "[4]", "result": "ameliorated"}]}
{"compound": "CC(=O)N[C@@H](CS)C(=O)O", "note": "[N-acetylcysteine]", "values": [{"measurement": "acute insulin resistance induced by TNFα or dexamethasone", "setting": "[4]", "result": "ameliorated"}]}
{"compound": "Oc1ccc(/C=C/c2cc(O)cc(O)c2)cc1", "note": "[resveratrol]", "values": [{"measurement": "insulin resistance", "setting": "[5]", "result": "improvement in insulin resistance"}, {"measurement": "urinary excretion of o-Tyr", "setting": "[5]", "result": "decrease in urinary excretion of o-Tyr"}]}
{"compound": "GRKGSGDF(2-PO4H2)MPMSPKV [GRKV6, phospho-ortho-Tyr containing IRS-1 YXXM motif peptide]", "values": [{"measurement": "dephosphorylation by PTP1B", "setting": "[2]", "result": "incapable of dephosphorylating"}, {"measurement": "binding affinity compared to phospho-para-Tyr peptide (GRKV2), PI3K-SH2(C)", "setting": "[3]", "result": "greatly reduced binding affinity"}]}
